From US20090117563A1, “Identification of TRPML3 (MCOLN3) as a Salty Taste Receptor and Use in Assays for Identifying Taste (Salty) Modulators and/or Therapeutics that Modulate Sodium Transport, Absorption or Excretion and/or Aldosterone and/or Vasopressin Production or Release” (priority 2007, published 2009)

Target: T1, human TRPML3 (Homo sapiens, UniProt Q8TDD5)
T1 construct: expressed in transfected cells
T1 sequence (Q8TDD5 1-553): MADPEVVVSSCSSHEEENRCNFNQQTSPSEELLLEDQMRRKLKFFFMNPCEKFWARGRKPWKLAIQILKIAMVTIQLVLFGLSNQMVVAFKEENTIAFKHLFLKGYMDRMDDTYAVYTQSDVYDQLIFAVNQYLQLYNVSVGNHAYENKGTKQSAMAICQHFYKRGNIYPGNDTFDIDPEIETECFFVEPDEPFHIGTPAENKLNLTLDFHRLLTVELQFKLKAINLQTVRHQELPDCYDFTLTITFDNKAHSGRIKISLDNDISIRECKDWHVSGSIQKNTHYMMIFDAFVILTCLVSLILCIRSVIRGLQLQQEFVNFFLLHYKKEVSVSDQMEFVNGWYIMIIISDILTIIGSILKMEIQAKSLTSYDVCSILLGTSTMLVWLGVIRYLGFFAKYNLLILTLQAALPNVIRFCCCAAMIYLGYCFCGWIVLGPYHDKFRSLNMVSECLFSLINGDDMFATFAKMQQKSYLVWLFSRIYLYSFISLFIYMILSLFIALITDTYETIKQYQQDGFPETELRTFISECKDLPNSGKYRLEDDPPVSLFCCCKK
Experiment: Two-electrode voltage clamp in oocytes injected with human TRPML3 cRNA
Assay type: cell-based
Details: 300 uM gadolinium (GdCl3) solution; −100 to +60 mV
Description: Twenty-four to forty-eight hours following microinjection of 10-25 ng human TRPML3 cRNA, TRPML3 function is measured in oocytes using the two-electrode voltage clamp technique on an OpusXpress 6000A parallel oocyte voltage clamp system (MDS Analytical Technologies). The two-electrode voltage clamp technique is an electrophysiology method that measures the macroscopic electrical current flowing across the entire oocyte membrane though protein channels (Stuhmer, Methods in Enzymology (1992) 207: 319-339). Oocytes are impaled with a voltage-sensing electrode and a current-sensing electrode; the voltage, or potential difference across the oocyte membrane, is clamped to a particular value using the voltage-sensing electrode and the current, or the flow of ions across the oocyte membrane, required to maintain that voltage is measured using the current-sensing electrode. […]
If the compound functions as a TRPML3 enhancer, the current passing through TRPML3 channels in the oocyte membrane increases (becomes more negative). […] To quantitate the effect of a compound on TRPML3 function, the following formula is used: […]
This value corresponds to the magnitude of the current change due to compound divided by the magnitude of the current change due to NMDG multiplied by −100%. […] All four oocytes expressed TRPML3, as evidenced by the inhibitory effect of NMDG on measured oocyte currents. […]

In the case of `[Cl][Gd]([Cl])[Cl]` [gadolinium, gadolinium chloride], the “effect on TRPML3 current and slope of the I/V curve” value is reported as “blocks TRPML3 current and decreases the slope of the I/V curve”.
